Experimental data as given in patent US20060063187A1, “Modulation of XBP-1 activity for treatment of metabolic disorders” (priority 2004, published 2006).

Key:
[1] = tested on: Fao liver cells; experiment: ER stress and insulin receptor signaling in Fao liver cells (immunoprecipitation / immunoblotting); assay type: cell-based, rat; details: for serine (Ser307) phosphorylation of IRS-1: Fao cells treated with ER stress inducer (tunicamycin 5 μg/ml 3 h; thapsigargin 300 nM)
Protocol: (§1) FIG. 2 depicts that the induction of ER stress impairs insulin action through JNK mediated phosphorylation of IRS-1. (A) ER stress was induced in Fao liver cells by a 3-hour treatment with 5 μg/ml tunicamycin (Tun). Cells were subsequently stimulated with insulin (Ins). IRS-1 tyrosine and serine (Ser307) phosphorylation, Akt phosphorylation (Ser473), insulin receptor (IR) tyrosine phosphorylation, and their total protein levels were examined using either immunoprecipitation (IP) followed by immunoblotting (IB) or direct immunoblotting. (B) Quantitation of IRS-1 (tyrosine and Ser307), Akt (Ser473), and IR (tyrosine) phosphorylation under the experimental conditions described in (A) with normalization to protein levels for each molecule. (C) Inhibition of ER stress-induced (300 nM thapsigargin for 4 hours) Ser307 phosphorylation of IRS-1 by JNK-1 inhibitor, SP600125 (JNKi, 25 μM). (D) Quantitation of IRS-1 Ser307 phosphorylation under conditions described in (C). (E) Reversal of ER stress-induced inhibition of insulin-stimulated tyrosine phosphorylation (pY) of IRS-1 by a JNK inhibitor. (F) Quantitation of insulin-induced IRS-1 tyrosine phosphorylation levels described in (E). (G) JNK activity, Ser307 phosphorylation of IRS-1, and total IRS-1 levels at indicated times following tunicamycin treatment (Tun, 10 μg/ml for I hour) in IRE-1α^+/+ and IRE-1α^−/− fibroblasts. (H) Insulin-stimulated IRS-1 tyrosine phosphorylation and total IRS-1 levels following tunicamycin treatment (Tun, 10 μg/ml for 1 hour) in IRE-1α^+/+ and IRE-1α^−/− fibroblasts. […] All graphs show mean ±SEM from at least 2 independent experiments and statistical significance from the controls is indicated by * with p<0.005.
FIG. 8 depicts inhibition of insulin receptor signaling by thapsigargin-induced ER stress and the role of Ca^+2 levels in IRS-1 serine phosphorylation. (A) ER stress was induced in Fao cells by 1 hour treatment with 300 nM thapsigargin (Thap), and cells were subsequently stimulated with insulin (Ins). IRS-1 tyrosine phosphorylation (pY) and serine phosphorylation (pSer307), insulin receptor (IR) tyrosine phosphorylation, and total protein levels were examined using either immunoprecipitation (UP) followed by immunoblotting (IB) or direct immunobloting. (B) Fao cells were treated with sulindac sulfide (SS: 0, 7.5, 30, and 60 μM) for 45 minutes with or without an additional hour of exposure to 300 nM thapsigargin (Thap). IRS-1 serine phosphorylation and total IRS-1 protein levels were examined as described above.
Cells: FaO cells were cultured with RPMI 1640 (Gibco) containing 10% fetal bovine serum (FBS). At 70-80% confluency, cells were serum depleted for 12 hours before starting the experiments. Reagents including tunicamycin, thapsigargin, and JNK inhibitors were gently added to the culture dishes in the incubator to prevent any environmental stress. JNK inhibitors were added 1 hour before tunicamycine/thapsigargin treatment. The XBP-1^−/− MEF cells, IRE-1α^−/− MEF cells (provided by Dr. David Ron (New York University School of Medicine) and their wild type (WT) controls were cultured in Dulbecco's Modified Eagle Medium (DMEM) (Gibco) containing 10% FBS. Experiments in MEF cells were carried out similar to those in FaO cells except after 6 hours of serum depletion.
(§2) Protein Extracts From Cells: At the end of each treatment, cells were immediately frozen in liquid nitrogen and kept at −80° C. Protein extracts were prepared with a lysis buffer, containing 25 mM Tris-HCl (pH7.4), 2 mM Na3VO4, 10 mM NaF, 10 mM Na4P2O7, 1 mM EGTA, 1 mM EDTA, 1% NP40, 5 μg/ml leupeptin, 5 μg/ml aprotinin, 10 nM okadaic acid, and 1 mM PMSF. Immunoprecipitations and immunoblotting experiments were performed with 750 pg and 75 ug total protein, respectively.

[2] = tested on: mouse embryonic fibroblasts (MEF) without exogenous XBP-1s expression; experiment: ER stress response in MEF-tet-off fibroblasts without exogenous XBP-1s expression; assay type: cell-based; details: tunicamycin 2 μg/ml, fibroblasts without exogenous XBP-1s (+Dox)
Text: FIG. 3 depicts that alteration of the ER stress response by manipulation of XBP-1 levels leads to alterations in insulin receptor signaling. ER stress responses in XBP-1s overexpressing cells, XBP-1^−/− cells, and their controls. (A) Induction of XBP-1s expression upon removal of doxycycline in mouse embryonic fibroblasts (MEF). (B) Southern blot analysis of XBP-1^−/− MEF cells and their WT controls for the wild type (9.4 kb) and targeted (6.5 kb) alleles. (C) PERK phosphorylation (p-PERK) and JNK activity in the XBP-1s overexpressing cells and their control cells (−Dox and +Dox, respectively) upon tunicamycin treatment (Tun, 2 μg/ml). (D) PERK phosphorylation and JNK activity upon low dose tunicamycin treatment (Tun, 0.5 μg/ml) in XBP-1^−/−-MEF cells and their WT controls. (E) IRS-1 Ser307 phosphorylation upon tunicamycin treatment (Tun, 2 μg/ml) in the XBP-1s overexpressingcells and the control cells (−Dox and +Dox, respectively), detected using immunoprecipitation (IP) of IRS-1 followed by immunoblotting (IB) with an IRS-1 phosphoserine 307-specific antibody. […] The ratio of IRS-1 tyrosine phosphorylation to total IRS-1 level was summarized from independent experiments and was presented in the graph. (G) IRS-1 Ser307 phosphorylation upon tunicamycin treatment (Tun, 0.5 μg/ml) in XBP-1^−/− cells and WT controls was detected as described in panel C. […] The ratio of IRS-1 tyrosine phosphorylation to total IRS-1 level was summarized from independent experiments and presented in the graph. All graphs show mean±SEM from at least 2 independent experiments and statistically significance from the controls is indicated by * with p<0.005.
Overexpression of XBPIs in MEFs: MEF-tet-off cells (Clontech) were cultured in DMEM with 100 μg/ml G418 and 1 μg/ml doxycycline. The MEF-tet-off cells express exogenous tTA (tetracycline-controlled transactivator) protein, which binds to TRE (tetracycline response element) and activates transcription only in the absence of tetracycline or doxycycline. The cDNA of the spliced form of XBP-1 was ligated into pTRE2hyg2 plasmid (Clontech). The MEF-tet-off cells were transfected with the TRE2hyg2-XBP-1s plasmid, followed by selection in the presence of […] hygromycine B. Individual clones of stable transfectants were isolated and doxycycline-dependent XBP-1s expression was confirmed by immunoblotting.
as §2, with “Immunoprecipitations and immunoblotting experiments were performed with 750 pg and 75 ug total protein, respectively.” left out

[3] = tested on: IRE-1α−/− fibroblasts; experiment: ER stress-induced JNK activation and IRS-1 phosphorylation in IRE-1α-deficient fibroblasts; assay type: cell-based, mouse; details: tunicamycin 10 μg/ml for 1 hour
Protocol: FIG. 2 depicts that the induction of ER stress impairs insulin action through JNK mediated phosphorylation of IRS-1. (A) ER stress was induced in Fao liver cells by a 3-hour treatment with 5 μg/ml tunicamycin (Tun). Cells were subsequently stimulated with insulin (Ins). IRS-1 tyrosine and serine (Ser307) phosphorylation, Akt phosphorylation (Ser473), insulin receptor (IR) tyrosine phosphorylation, and their total protein levels were examined using either immunoprecipitation (IP) followed by immunoblotting (IB) or direct immunoblotting. (B) Quantitation of IRS-1 (tyrosine and Ser307), Akt (Ser473), and IR (tyrosine) phosphorylation under the experimental conditions described in (A) with normalization to protein levels for each molecule. (C) Inhibition of ER stress-induced (300 nM thapsigargin for 4 hours) Ser307 phosphorylation of IRS-1 by JNK-1 inhibitor, SP600125 (JNKi, 25 μM). (D) Quantitation of IRS-1 Ser307 phosphorylation under conditions described in (C). (E) Reversal of ER stress-induced inhibition of insulin-stimulated tyrosine phosphorylation (pY) of IRS-1 by a JNK inhibitor. (F) Quantitation of insulin-induced IRS-1 tyrosine phosphorylation levels described in (E). (G) JNK activity, Ser307 phosphorylation of IRS-1, and total IRS-1 levels at indicated times following tunicamycin treatment (Tun, 10 μg/ml for I hour) in IRE-1α^+/+ and IRE-1α^−/− fibroblasts. […]

[4] = tested on: WT MEF cells; experiment: ER stress response to low dose tunicamycin in WT MEF cells; assay type: cell-based, mouse; details: low dose of tunicamycin 0.5 μg/ml
Text: (§3) FIG. 3 depicts that alteration of the ER stress response by manipulation of XBP-1 levels leads to alterations in insulin receptor signaling. ER stress responses in XBP-1s overexpressing cells, XBP-1^−/− cells, and their controls. (A) Induction of XBP-1s expression upon removal of doxycycline in mouse embryonic fibroblasts (MEF). (B) Southern blot analysis of XBP-1^−/− MEF cells and their WT controls for the wild type (9.4 kb) and targeted (6.5 kb) alleles. (C) PERK phosphorylation (p-PERK) and JNK activity in the XBP-1s overexpressing cells and their control cells (−Dox and +Dox, respectively) upon tunicamycin treatment (Tun, 2 μg/ml). (D) PERK phosphorylation and JNK activity upon low dose tunicamycin treatment (Tun, 0.5 μg/ml) in XBP-1^−/−-MEF cells and their WT controls. (E) IRS-1 Ser307 phosphorylation upon tunicamycin treatment (Tun, 2 μg/ml) in the XBP-1s overexpressingcells and the control cells (−Dox and +Dox, respectively), detected using immunoprecipitation (IP) of IRS-1 followed by immunoblotting (IB) with an IRS-1 phosphoserine 307-specific antibody. […] The ratio of IRS-1 tyrosine phosphorylation to total IRS-1 level was summarized from independent experiments and was presented in the graph. (G) IRS-1 Ser307 phosphorylation upon tunicamycin treatment (Tun, 0.5 μg/ml) in XBP-1^−/− cells and WT controls was detected as described in panel C. […]

[5] = tested on: XBP-1−/− MEF cells; experiment: ER stress response to low dose tunicamycin in XBP-1−/− MEF cells; assay type: cell-based, mouse
Text: as §3

[6] = tested on: IRE-1α+/+ (WT) fibroblasts; experiment: ER stress-induced JNK activation and IRS-1 phosphorylation in wild type fibroblasts; assay type: cell-based, mouse; details: tunicamycin 10 μg/ml for 1 hour
Protocol: as §1
Cells: FaO cells were cultured with RPMI 1640 (Gibco) containing 10% fetal bovine serum (FBS). At 70-80% confluency, cells were serum depleted for 12 hours before starting the experiments. Reagents including tunicamycin, thapsigargin, and JNK inhibitors were gently added to the culture dishes in the incubator to prevent any environmental stress. […]

CSc1ccc(/C=C2/C(C)=C(CC(=O)O)c3cc(F)ccc32)cc1 [sulindac sulfide]
thapsigargin-induced IRS-1 serine phosphorylation ([1]; sulindac sulfide 45 minutes, then additional hour of 300 nM thapsigargin): did not interfere | Ser307 phosphorylation of IRS-1 ([1]; sulindac sulfide alone (0, 7.5, 30, 60 μM, 45 minutes)): no effect

tunicamycin
insulin-stimulated tyrosine phosphorylation of IRS-1 ([1]; Fao cells pretreated with ER stress inducer (tunicamycin 5 μg/ml 3 h; thapsigargin 300 nM 1 h), then insulin): significantly decreased | serine (Ser307) phosphorylation of IRS-1 [1]: significant increase | insulin-induced Akt phosphorylation (Ser473) ([1]; Fao cells, tunicamycin pretreatment 5 μg/ml 3 h, then insulin): suppressed | JNK activation [2]: rapid and robust activation | PERK phosphorylation [2]: strong | peak of PERK phosphorylation [2]: 3 to 4 h | start of PERK phosphorylation [2]: 30 min | insulin-stimulated tyrosine phosphorylation of IRS-1 ([3]; IRE-1α−/− cells, then insulin): no such effect was detected | phosphorylation of IRS-1 at Ser307 ([3]; IRE-1α−/− fibroblasts): not | ER stress (PERK phosphorylation, JNK activation) [4]: failed to stimulate significant ER stress | ER stress response (PERK phosphorylation, JNK activation) ([5]; low dose of tunicamycin 0.5 μg/ml, XBP-1−/− MEFs): strong ER stress response | IRS-1 serine (Ser307) phosphorylation ([5]; tunicamycin 0.5 μg/ml, XBP-1−/− MEFs compared with XBP-1+/+ controls): strongly induced | insulin-stimulated tyrosine phosphorylation of IRS-1 ([6]; WT cells, then insulin): inhibited | JNK activation ([6]; WT fibroblasts): strong activation | phosphorylation of IRS-1 at Ser307 ([6]; WT fibroblasts): stimulated

C/C=C(/C)C(=O)O[C@H]1C(C)=C2[C@H]([C@@H]1OC(=O)CCCCCCC)[C@@](C)(OC(C)=O)C[C@H](OC(=O)CCC)[C@@]1(O)[C@H]2OC(=O)[C@@]1(C)O [thapsigargin]
serine (Ser307) phosphorylation of IRS-1 [1]: increased | insulin receptor signaling ([1]; Fao cells, thapsigargin 300 nM 1 h, then insulin): suppressed
